Experiment: Example 18: safety and tolerability in slow and fast acetylators
Type: in vivo, human
Text: The primary objective of the study was to assess the safety and tolerability of 3,4-DAP phosphate after single and multiple doses. The secondary objectives of the study were • Part 1 only: To determine the dose-related PK profile of amifampridine and of 3-N-acetyl amifampridine after single, escalating doses of 3,4-DAP phosphate • Part 2 only: To assess the steady-state plasma PK and accumulation of amifampridine and of 3-N-acetyl amifampridine over multiple days of dosing with 3,4-DAP phosphate An exploratory objective was to examine the overall activity of the N-acetyl transferase enzymes on the metabolism of amifampridine by assessing the PK of amifampridine and 3-N-acetyl amifampridine with phenotypic acetylation activity and genotyping determination of NAT2 gene polymorphisms. Study Design and Plan
Part 1 was a dose-proportionality study in 12 healthy subjects each receiving 4 ascending single oral doses of 3,4-DAP phosphate in a sequential manner (5 mg, 10 mg, 20 mg, and 30 mg). For all 12 subjects, the first 3 doses of oral 3,4-DAP phosphate (5-20 mg) were administered on 3 consecutive days (Days 1-3). Two fast and two slow acetylators (as defined by a caffeine challenge test in Example 15a) were selected as the first 4 enrolled subjects (sentinel subjects). For the 2 fast acetylators the 30 mg dose was administered on Day 4. […] Safety and tolerability data collected for all 4 subjects were reviewed and the safety and tolerability results of the 30 mg dose for these 4 sentinel subjects were acceptable. The 30 mg dose was given to the remaining 8 non-sentinel subjects on Day 7. Sentinel and non-sentinel subjects were released from the clinic on Day 5, Day 6, and Day 8 respectively, with all subjects returning for follow-tip assessments 2-4 days following their last dose.
Part 2, Group 1: Four sentinel subjects were selected after determining their acetylator status. Two were fast acetylators and two were slow acetylators. All four were dosed on Day 1 with 4 oral doses of 20 mg of 34-DAP phosphate (given at 4-hour dosing intervals). On Days […] and 2, safety and tolerability data was collected. Subjects left the clinic on Day 2. The safety and tolerability data collected for these 4 sentinel subjects were reviewed. The safety and tolerability results of Days 1 and 2 for these subjects were acceptable and thus Part 2 Group 2 was commenced. Minimally acceptable safety was defined as the absence of clinical seizure activity. Subjects in Group 1 returned to the clinic for their follow-up assessments 2-4 days following their last dose.
Each subject was given a final morning dose of 20 mg 3,4-DAP phosphate on Day 4. Subjects in Group 2 returned to the clinic for their follow-up assessments 2-4 days following their last dose.
Safety assessments: During the assessment period, the following safety measures were evaluated: vital signs, adverse events (AEs), 12-lead ECG, EEG and clinical laboratory tests.
Safety: Safety was assessed by the incidence of AEs, as well as changes in vital signs, 12-lead ECG, EEG, and clinical laboratory evaluations.
Safety: All subjects who received any amount of study drug in either Part 1 or Part 2 of this study and had post-dose safety information were included in the safety analyses. Safety was evaluated separately for Part 1 and Part 2 and was summarized by dose levels where appropriate. All verbatim AE terms were coded using Medical Dictionary for Regulatory Activities (MedDRA) terminology. Only treatment-emergent AEs (i.e., AEs with a start date on or after the first dose of study drug) were summarized. The incidence of AEs and SAEs were summarized for each study part by dose level, system, organ, class, preferred term, relationship to study drug, and severity. No deaths during the study, no discontinuations of study drug, and no withdrawals from the study and study drug due to an AE were observed.

For `Nc1ccncc1N.O=P(O)(O)O` [amifampridine phosphate, 3,4-diaminopyridine phosphate], the seizures (Part 1, 30 mg dose, sentinel subjects) was “No seizures were seen”, the “phenotype in which drug-related adverse events were observed” value (Part 1, single doses 5-30 mg) was “observed in slow acetylators only” and the “drug-related adverse events: % of subjects” value (Part 2, fast acetylators (7)) was 43%. The “drug-related adverse events: events” value (Part 2, fast acetylators (7)) was “six”, the “drug-related adverse events: subjects” value (Part 2, fast acetylators (7)) was 3 and the “drug-related adverse events: % of subjects” value (Part 2, slow acetylators (7)) was 86%. For the same compound, the “drug-related adverse events: events” value (Part 2, slow acetylators (7)) was “Forty-five”, the “drug-related adverse events: subjects” value (Part 2, slow acetylators (7)) was 6 and the seizures (Part 2 Group 1, 20 mg x 4 on Day 1) was “No seizures occurred”. The serious adverse events (Parts 1 and 2) was “no serious adverse events” and the “severity of treatment-emergent adverse events” value (Parts 1 and 2) was “mild and transient”.

Reference: patent US11274332B2, “Methods of administering 3,4-diaminopyridine” (SERB SA, priority 2011, dated 2022)
